Results as given in ChEMBL document CHEMBL1201861, “Genomics of Drug Sensitity in Cancer screening data, Wellcome Trust Sanger Institute”.

How the values were obtained:
Test in all cases: cells
GCIY = type: functional, cell-based, Homo sapiens; details: Homo sapiens, GCIY;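 further: growth inhibition of the human GCIY cell line, read out by a cell viability assay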
Description: SANGER: Inhibition of human GCIY cell growth in a cell viability assay.

GB-1 = type: functional, cell-based, Homo sapiens; details: Homo sapiens, GB-1;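 further: growth of GB-1 cells judged by a viability assay, IC50 marks the concentration inhibiting growth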
Description: SANGER: Inhibition of human GB-1 cell growth in a cell viability assay.

NCI-H1299 = type: functional, cell-based, Homo sapiens; details: Homo sapiens, NCI-H1299;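 further: growth inhibition of human NCI-H1299 cells, read out by a cell viability assay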
Description: SANGER: Inhibition of human NCI-H1299 cell growth in a cell viability assay.

DMS-114 = type: functional, cell-based, Homo sapiens; details: Homo sapiens, DMS-114
DSH1 = type: functional, cell-based, Homo sapiens; details: Homo sapiens, DSH1;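 further: growth inhibition of human DSH1 cells, measured with a cell viability readout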
Description: SANGER: Inhibition of human DSH1 cell growth in a cell viability assay.

GR-ST = type: functional, cell-based, Homo sapiens; details: Homo sapiens, GR-ST
Description: SANGER: Inhibition of human GR-ST cell growth in a cell viability assay.

SK-NEP-1 = type: functional, cell-based, Homo sapiens; details: Homo sapiens, SK-NEP-1;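 further: growth inhibition of human SK-NEP-1 cells, read out by a cell viability assay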
Description: SANGER: Inhibition of human SK-NEP-1 cell growth in a cell viability assay.

OVCAR-4 = type: functional, cell-based, Homo sapiens; details: Homo sapiens, OVCAR-4;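 further: growth inhibition of human OVCAR-4 cells, measured with a cell viability assay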
Description: SANGER: Inhibition of human OVCAR-4 cell growth in a cell viability assay.

no-10 = type: functional, cell-based, Homo sapiens; details: Homo sapiens;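 further: growth inhibition of no-10 cells, read out with a cell viability assay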
Description: SANGER: Inhibition of human no-10 cell growth in a cell viability assay.

SBC-1 = type: functional, cell-based, Homo sapiens; details: Homo sapiens, SBC-1;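 further: cell viability assay measuring growth inhibition of the SBC-1 cell line, IC50 being the concentration that halves growth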
Description: SANGER: Inhibition of human SBC-1 cell growth in a cell viability assay.

NH-12 = type: functional, cell-based, Homo sapiens; details: Homo sapiens, NH-12;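 further: growth inhibition of NH-12 cells, read out with a cell viability assay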
Description: SANGER: Inhibition of human NH-12 cell growth in a cell viability assay.

UACC-257 = type: functional, cell-based, Homo sapiens; details: Homo sapiens, UACC-257
Description: SANGER: Inhibition of human UACC-257 cell growth in a cell viability assay.

QIMR-WIL = type: functional, cell-based, Homo sapiens; details: Homo sapiens, QIMR-WIL;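 further: growth inhibition of QIMR-WIL cells, read out with a cell viability assay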
Description: SANGER: Inhibition of human QIMR-WIL cell growth in a cell viability assay.

OCI-AML2 = type: functional, cell-based, Homo sapiens; details: Homo sapiens, OCI-AML2;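 further: growth inhibition of OCI-AML2 cells, read out with a cell viability assay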
Description: SANGER: Inhibition of human OCI-AML2 cell growth in a cell viability assay.

NCI-H1650 = type: functional, cell-based, Homo sapiens; details: Homo sapiens, NCI-H1650;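 further: growth inhibition of human NCI-H1650 cells measured by a cell viability assay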
Description: SANGER: Inhibition of human NCI-H1650 cell growth in a cell viability assay.

A3-KAW = type: functional, cell-based, Homo sapiens; details: Homo sapiens, A3-KAW;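 further: growth inhibition of human A3-KAW cells, read out with a cell viability assay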
Description: SANGER: Inhibition of human A3-KAW cell growth in a cell viability assay.

Lu-65 = type: functional, cell-based, Homo sapiens; details: Homo sapiens, Lu-65;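 further: growth inhibition of Lu-65 cancer cells, read out by a cell viability assay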
Description: SANGER: Inhibition of human LU-65 cell growth in a cell viability assay.

A498 = type: functional, cell-based, Homo sapiens; details: Homo sapiens, A498;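 further: growth inhibition of human A498 cells, read out with a cell viability assay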
Description: SANGER: Inhibition of human A498 cell growth in a cell viability assay.

L-428 = type: functional, cell-based, Homo sapiens; details: Homo sapiens, L-428
Description: SANGER: Inhibition of human L-428 cell growth in a cell viability assay.

BB30-HNC = type: functional, cell-based, Homo sapiens; details: Homo sapiens, BB30-HNC;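 further: growth inhibition of the cultured cell line, read out by a cell viability assay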
Description: SANGER: Inhibition of human BB30-HNC cell growth in a cell viability assay.

KINGS-1 = type: functional, cell-based, Homo sapiens; details: Homo sapiens, KINGS-1;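 further: cell viability assay measuring suppression of KINGS-1 cell growth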
Description: SANGER: Inhibition of human KINGS-1 cell growth in a cell viability assay.

LOX IMVI = type: functional, cell-based, Homo sapiens; details: Homo sapiens, LOX IMVI
Description: SANGER: Inhibition of human LOXIMVI cell growth in a cell viability assay.

KARPAS-45 = type: functional, cell-based, Homo sapiens; details: Homo sapiens, KARPAS-45;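 further: inhibition of cell line growth, read out through a viability assay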
Description: SANGER: Inhibition of human KARPAS-45 cell growth in a cell viability assay.

DEL = type: functional, cell-based, Homo sapiens; details: Homo sapiens, DEL;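 further: growth inhibition of the human DEL cell line, read out with a cell viability assay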
Description: SANGER: Inhibition of human DEL cell growth in a cell viability assay.

Ramos-2G6-4C10 = type: functional, cell-based, Homo sapiens; details: Homo sapiens, Ramos-2G6-4C10;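 further: growth inhibition of the cell line, measured by a cell viability read-out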
Description: SANGER: Inhibition of human Ramos-2G6-4C10 cell growth in a cell viability assay.

MZ1-PC = type: functional, cell-based, Homo sapiens; details: Homo sapiens, MZ1-PC;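 further: cell viability assay measuring growth inhibition of human MZ1-PC cells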
Description: SANGER: Inhibition of human MZ1-PC cell growth in a cell viability assay.

NCI-H209 = type: functional, cell-based, Homo sapiens; details: Homo sapiens, NCI-H209;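 further: growth inhibition of human NCI-H209 cells, measured by a cell viability assay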
Description: SANGER: Inhibition of human NCI-H209 cell growth in a cell viability assay.

HCE-T = type: functional, cell-based, Homo sapiens; details: Homo sapiens, HCE-T;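 further: cell viability assay read-out, reporting inhibition of HCE-T cell growth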
Description: SANGER: Inhibition of human HCE-T cell growth in a cell viability assay.

MLMA = type: functional, cell-based, Homo sapiens; details: Homo sapiens, MLMA;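 further: growth inhibition of MLMA cells (human), determined through a cell viability readout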
Description: SANGER: Inhibition of human MLMA cell growth in a cell viability assay.

DU-4475 = type: functional, cell-based, Homo sapiens; details: Homo sapiens, DU-4475
Description: SANGER: Inhibition of human DU-4475 cell growth in a cell viability assay.

SHP77 = type: functional, cell-based, Homo sapiens, SHP-77; details: Homo sapiens, SHP77;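 further: growth inhibition of human SHP-77 cells measured by a cell viability assay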
Description: SANGER: Inhibition of human SHP-77 cell growth in a cell viability assay.

SF-539 = type: functional, cell-based, Homo sapiens; details: Homo sapiens, SF-539;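 further: Read-out is a cell viability assay, with IC50 reflecting inhibition of cell growth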
Description: SANGER: Inhibition of human SF539 cell growth in a cell viability assay.

NCI-H82 = type: functional, cell-based, Homo sapiens; details: Homo sapiens, NCI-H82;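 further: growth inhibition of NCI-H82 cells, measured with a cell viability readout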
Description: SANGER: Inhibition of human NCI-H82 cell growth in a cell viability assay.

KG-1 = type: functional, cell-based, Homo sapiens; details: Homo sapiens, KG-1;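 further: growth inhibition of KG-1 cells, read out by a cell viability assay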
Description: SANGER: Inhibition of human KG-1 cell growth in a cell viability assay.

MN-60 = type: functional, cell-based, Homo sapiens; details: Homo sapiens, MN-60;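 further: growth inhibition of the MN-60 cell line, determined with a cell viability assay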
Description: SANGER: Inhibition of human MN-60 cell growth in a cell viability assay.

GI-1 = type: functional, cell-based, Homo sapiens; details: Homo sapiens, GI-1;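 further: growth inhibition of human GI-1 cells, measured with a cell viability readout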
Description: SANGER: Inhibition of human GI-1 cell growth in a cell viability assay.

U-266 = type: functional, cell-based, Homo sapiens; details: Homo sapiens, U-266
Description: SANGER: Inhibition of human U-266 cell growth in a cell viability assay.

SK-MEL-2 = type: functional, cell-based, Homo sapiens; details: Homo sapiens, SK-MEL-2;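 further: growth inhibition of human SK-MEL-2 cells measured with a cell viability assay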
Description: SANGER: Inhibition of human SK-MEL-2 cell growth in a cell viability assay.

LAMA-84 = type: functional, cell-based, Homo sapiens; details: Homo sapiens, LAMA-84;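 further: growth inhibition of LAMA-84 cells, read out with a cell viability assay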
Description: SANGER: Inhibition of human LAMA-84 cell growth in a cell viability assay.

CW-2 = type: functional, cell-based, Homo sapiens; details: Homo sapiens, CW-2;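 further: growth inhibition of CW-2 cells, read out by a cell viability assay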
Description: SANGER: Inhibition of human CW-2 cell growth in a cell viability assay.

TGBC1TKB = type: functional, cell-based, Homo sapiens; details: Homo sapiens, TGBC1TKB;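 further: growth inhibition of TGBC1TKB cells, read out by a cell viability assay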
Description: SANGER: Inhibition of human TGBC1TKB cell growth in a cell viability assay.

IA-LM = type: functional, cell-based, Homo sapiens; details: Homo sapiens, IA-LM;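 further: cell viability assay measuring growth inhibition of human IA-LM cells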
Description: SANGER: Inhibition of human IA-LM cell growth in a cell viability assay.

GOTO = type: functional, cell-based, Homo sapiens; details: Homo sapiens, GOTO;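 further: growth inhibition of GOTO cells, read out by a cell viability assay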
Description: SANGER: Inhibition of human GOTO cell growth in a cell viability assay.

TE-1 = type: functional, cell-based, Homo sapiens; details: Homo sapiens, TE-1;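 further: growth inhibition of the human TE-1 cell line, read out with a cell viability assay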
Description: SANGER: Inhibition of human TE-1 cell growth in a cell viability assay.

NB13 = type: functional, cell-based, Homo sapiens; details: Homo sapiens, NB13;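 further: cell viability readout measuring growth inhibition of human NB13 cells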
Description: SANGER: Inhibition of human NB13 cell growth in a cell viability assay.

EW-13 = type: functional, cell-based, Homo sapiens; details: Homo sapiens, EW-13;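 further: growth inhibition of EW-13 cells, read out with a cell viability assay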
Description: SANGER: Inhibition of human EW-13 cell growth in a cell viability assay.

KP-N-YS = type: functional, cell-based, Homo sapiens; details: Homo sapiens, KP-N-YS;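 further: cell viability assay measuring inhibition of cell line growth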
Description: SANGER: Inhibition of human KP-N-YS cell growth in a cell viability assay.

EW-1 = type: functional, cell-based, Homo sapiens; details: Homo sapiens, EW-1
Description: SANGER: Inhibition of human EW-1 cell growth in a cell viability assay.

Structure (SMILES): CC1(C)CNc2cc(NC(=O)c3cccnc3NCc3ccncc3)ccc21 [MOTESANIB]
- IC50 (GCIY): > 2000 nM
- IC50 (GB-1): > 2000 nM
- IC50 (NCI-H1299): > 2000 nM
- IC50 (DMS-114): > 2000 nM
- IC50 (DSH1): > 2000 nM
- IC50 (GR-ST): > 2000 nM
- IC50 (SK-NEP-1): > 2000 nM
- IC50 (OVCAR-4): > 2000 nM
- IC50 (no-10): > 2000 nM
- IC50 (SBC-1): > 2000 nM
- IC50 (NH-12): > 2000 nM
- IC50 (UACC-257): > 2000 nM
- IC50 (QIMR-WIL): > 2000 nM
- IC50 (OCI-AML2): > 2000 nM
- IC50 (NCI-H1650): > 2000 nM
- IC50 (A3-KAW): > 2000 nM
- IC50 (Lu-65): > 2000 nM
- IC50 (A498): > 2000 nM
- IC50 (L-428): > 2000 nM
- IC50 (BB30-HNC): > 2000 nM
- IC50 (KINGS-1): > 2000 nM
- IC50 (LOX IMVI): > 2000 nM
- IC50 (KARPAS-45): > 2000 nM
- IC50 (DEL): > 2000 nM
- IC50 (Ramos-2G6-4C10): > 2000 nM
- IC50 (MZ1-PC): > 2000 nM
- IC50 (NCI-H209): > 2000 nM
- IC50 (HCE-T): > 2000 nM
- IC50 (MLMA): > 2000 nM
- IC50 (DU-4475): > 2000 nM
- IC50 (SHP77): > 2000 nM
- IC50 (SF-539): > 2000 nM
- IC50 (NCI-H82): > 2000 nM
- IC50 (KG-1): > 2000 nM
- IC50 (MN-60): > 2000 nM
- IC50 (GI-1): > 2000 nM
- IC50 (U-266): > 2000 nM
- IC50 (SK-MEL-2): > 2000 nM
- IC50 (LAMA-84): > 2000 nM
- IC50 (CW-2): > 2000 nM
- IC50 (TGBC1TKB): > 2000 nM
- IC50 (IA-LM): > 2000 nM
- IC50 (GOTO): > 2000 nM
- IC50 (TE-1): > 2000 nM
- IC50 (NB13): > 2000 nM
- IC50 (EW-13): > 2000 nM
- IC50 (KP-N-YS): > 2000 nM
- IC50 (EW-1): > 2000 nM

Structure (SMILES): Cn1cnc2c(F)c(Nc3ccc(Br)cc3Cl)c(C(=O)NOCCO)cc21 [SELUMETINIB]
- IC50 (GCIY): > 4000 nM
- IC50 (GB-1): > 4000 nM
- IC50 (NCI-H1299): > 4000 nM
- IC50 (DMS-114): > 4000 nM
- IC50 (DSH1): > 4000 nM
- IC50 (GR-ST): > 4000 nM
- IC50 (SK-NEP-1): > 4000 nM
- IC50 (OVCAR-4): > 4000 nM
- IC50 (no-10): > 4000 nM
- IC50 (SBC-1): > 4000 nM
- IC50 (NH-12): > 4000 nM
- IC50 (UACC-257): 322 nM
- IC50 (QIMR-WIL): 1340 nM
- IC50 (OCI-AML2): > 4000 nM
- IC50 (NCI-H1650): > 4000 nM
- IC50 (A3-KAW): 3910 nM
- IC50 (Lu-65): > 4000 nM
- IC50 (A498): > 4000 nM
- IC50 (L-428): > 4000 nM
- IC50 (BB30-HNC): 2710 nM
- IC50 (KINGS-1): > 4000 nM
- IC50 (LOX IMVI): 859 nM
- IC50 (KARPAS-45): 2080 nM
- IC50 (DEL): > 4000 nM
- IC50 (Ramos-2G6-4C10): > 4000 nM
- IC50 (MZ1-PC): 3320 nM
- IC50 (NCI-H209): > 4000 nM
- IC50 (HCE-T): 971 nM
- IC50 (MLMA): > 4000 nM
- IC50 (DU-4475): 33.7 nM
- IC50 (SHP77): > 4000 nM
- IC50 (SF-539): > 4000 nM
- IC50 (NCI-H82): > 4000 nM
- IC50 (KG-1): 895 nM
- IC50 (MN-60): > 4000 nM
- IC50 (GI-1): > 4000 nM
- IC50 (U-266): 488 nM
- IC50 (SK-MEL-2): 405 nM
- IC50 (LAMA-84): 456 nM
- IC50 (CW-2): > 4000 nM
- IC50 (TGBC1TKB): > 4000 nM
- IC50 (IA-LM): > 4000 nM
- IC50 (GOTO): > 4000 nM
- IC50 (TE-1): > 4000 nM
- IC50 (NB13): > 4000 nM
- IC50 (EW-13): > 4000 nM
- IC50 (KP-N-YS): > 4000 nM
- IC50 (EW-1): > 4000 nM

Structure (SMILES): CC(C)CCN1c2nc(Nc3cc(F)c(O)c(F)c3)ncc2N(C)C(=O)C1C (centres undefined)
- IC50 (GCIY): 4710 nM
- IC50 (GB-1): > 5000 nM
- IC50 (NCI-H1299): 2940 nM
- IC50 (DMS-114): 4810 nM
- IC50 (DSH1): > 5000 nM
- IC50 (GR-ST): > 5000 nM
- IC50 (SK-NEP-1): 2040 nM
- IC50 (OVCAR-4): > 5000 nM
- IC50 (no-10): > 5000 nM
- IC50 (SBC-1): 695 nM
- IC50 (NH-12): 3110 nM
- IC50 (UACC-257): > 5000 nM
- IC50 (QIMR-WIL): 2080 nM
- IC50 (OCI-AML2): > 5000 nM
- IC50 (NCI-H1650): > 5000 nM
- IC50 (A3-KAW): 1630 nM
- IC50 (Lu-65): > 5000 nM
- IC50 (A498): > 5000 nM
- IC50 (L-428): > 5000 nM
- IC50 (BB30-HNC): > 5000 nM
- IC50 (KINGS-1): > 5000 nM
- IC50 (LOX IMVI): 2040 nM
- IC50 (KARPAS-45): 165 nM
- IC50 (DEL): > 5000 nM
- IC50 (Ramos-2G6-4C10): 1700 nM
- IC50 (MZ1-PC): 3830 nM
- IC50 (NCI-H209): 768 nM
- IC50 (HCE-T): > 5000 nM
- IC50 (MLMA): > 5000 nM
- IC50 (DU-4475): 504 nM
- IC50 (SHP77): > 5000 nM
- IC50 (SF-539): > 5000 nM
- IC50 (NCI-H82): > 5000 nM
- IC50 (KG-1): 3610 nM
- IC50 (MN-60): 2450 nM
- IC50 (GI-1): 3150 nM
- IC50 (U-266): 4610 nM
- IC50 (SK-MEL-2): > 5000 nM
- IC50 (LAMA-84): 1130 nM
- IC50 (CW-2): > 5000 nM
- IC50 (TGBC1TKB): > 5000 nM
- IC50 (IA-LM): > 5000 nM
- IC50 (GOTO): 3280 nM
- IC50 (TE-1): > 5000 nM
- IC50 (NB13): > 5000 nM
- IC50 (EW-13): > 5000 nM
- IC50 (KP-N-YS): 682 nM
- IC50 (EW-1): 2750 nM
